This is an account of results in patent US20080300298A1, “Honokiol Derivates For the Treatment of Proliferative Disorders” (priority 2005, published 2008).

Each structure is given as a SMILES string.

The test system of one data set is SU-DHL-4 cells. Description: induction of apoptosis. Type of data set: cell-based. The following applies: cells resistant to doxorubicin and As2O3-induced apoptosis; without activation of caspase 3. An excerpt: However, in contrast to the complete block of As2O3-induced apoptosis by z-VAD-fmk, inhibition of HNK-induced apoptosis by z-VAD-fmk was only partial, evidenced by PARP cleavage and APO2.7 assay (FIGS. 7B and D).
HNK induces apoptosis in SU-DHL4 cells, which express low levels of caspase-8 and -3 and are resistant to doxorubicin, As2O3, melphalan, dexamethasone, bortezomib (Chauhan et al. Cancer Res. 2003; 63:6174-6177), and revlimid. Therefore, agents such as HNK which kill MM cells via both caspase-dependent and caspase-independent pathways may be particularly useful to overcome drug resistance.

The subject of data set [1] is microvascular endothelial cells. Description: endothelial proliferation with TRAIL antibody. Type of data set: cell-based. Particulars: 0, 1, 6 or 9 μg/ml, 48 h. Here is the method:
10^4/well microvascular endothelial cells were cultured in 24-well plates for 24 h. The next day, cells were washed by PBS and pretreated with 0.5 ml/well fresh MEC medium with 0, 1, 6, or 9 μg/ml honokiol for 30 min before addition of TRAIL or isotype control antibody (30 μg/well). Cells were incubated for 48 h after the addition of reagents and were counted with a Coulter Counter. The green bars represent endothelial cells treated with honokiol alone, the dark blue bars represent cells treated with honokiol and TRAIL antibody, and the light blue bars represent cells treated with honokiol and isotype control antibody. The differences in honokiol-treated endothelium in the presence or absence of TRAIL antibody are significant (p<0.05).

The next data set deals with SVR angiosarcoma. Description: in vivo growth of SVR angiosarcoma. Particulars: nude mice. From the text: FIG. 18 depicts the effect of honokiol on in vivo growth of SVR angiosarcoma in nude mice.
FIG. 18 illustrates the effect of honokiol on in vivo growth of SVR angiosarcoma in nude mice.

Another data set deals with heart AMPKK. Description: direct activation of AMPKK in vitro. Type of data set: biochemical.
For data set [2], the system named is phospholipase D in SVR cells. Description: phospholipase D activity. Particulars: 0.5% and 10% serum. Type of data set: cell-based. An excerpt: Honokiol analogs can stimulate tumor and endothelial cell apoptosis through inhibition of PLD activity. […] Treatment with […] causes downregulation of S6kinase phosphorylation in a time and dose dependent fashion, as well as downregulation of akt. Thus, honokiol mimics several of the activities of wild type tuberin.

The next data set has as its system COX2 promoter. Description: COX-2 promoter-dependent reporter luciferase gene expression. Particulars: 0.1 nM TNF 24 h. Type of data set: cell-based, human.
Data set [3] has as its system cyclin D1, p27Kip1, p21Cip1/WAF1, EGFR, AKT, ERK2 in MDA-MB-231 cells. Description: Western blot of cell cycle and growth signaling proteins. Particulars: MDA-MB-231, 20, 40 and 60 μM, 24 hours. Type of data set: cell-based. Here is the method: Western blot analysis: Cells were harvested and lysed for total protein extraction in a buffer containing 50 mM Tris-Cl pH 7.4, 150 mM NaCl and 2% NP-40 together with a protease inhibitor cocktail (Comp). Approximately 50-150 μg of protein extract was loaded on a 4-15% polyacrylamide gels (Bio-Rad, Hercules, Calif.), separated electrophoretically and blotted from the gel onto PVDF membrane. The membranes were then blocked with a blocking buffer (5% non-fat dry milk in 1×TBST, i.e. 20 mM Tris-HCl, pH 7.6 containing 0.8% NaCl and 0.1% Tween-20) at room temperature for 1 h. The membranes were incubated with the primary antibodies in blocking buffer, followed by incubation with HRP-labeled secondary antibodies. Immunoactivity was detected with horseradish peroxidase-conjugated secondary antibody and visualized by Enhanced Chemiluminescence (Pierce, Rockford, Ill.). Quantification of the results was performed using AlphaImager 2000 (Alpha Innotech, San Leandro, Calif.).
HNK slows cell cycle in breast cancer cell lines. The effects of HNK (10 μM or 30 μM HNK for 24 hours) on cell cycle were evaluated in MCF-7 and MDA-MB-231 cells. These doses of HNK are less than the LC50 for both cell lines. […] Expression of proteins involved in G1 cell-cycle regulation (massgue) was examined in MDA-MB-231 cells using Western analysis.
HNK inhibits growth signaling pathways. […]
On the technique in general: In western blotting, separated proteins are transferred to a membrane and probed.

Data set [4] has as its system collagen induced arthritis (CIA). Description: collagen induced arthritis (CIA). The following applies: 3 mg/mouse/day i.p. from day 21 post-immunization. Type of data set: in vivo, C57Bl/6 and LMP1 transgenic mice. Here is the method: Female mice expressing the mCD40-LMP1 transgene (on a CD40−/− background) were bred in our transgenic mouse facility. Mice were either left naïve, immunized in the tail s.c. with […] Type II Chicken Collagen (Sigma) dissolved in 10 mM acetic acid and emulsified in IFA (Sigma) containing 5 mg/ml H37 RA heat-killed mycobacteria (Difco) (CFA), or immunized with 10 mM acetic acid emulsified in CFA. Some of the mice were injected i.p. with 3 mg/mouse/day honokiol suspended in 20% Intralipid, starting at day 21 post-immunization.

A further data set concerns lymph node cultures. Description: antigen recall lymph node cultures from treated mice. The following applies: honokiol 3 mg/day, day 21-70 post-immunization. Type of data set: in vivo, C57BL/6 or mCD40-LMP1 Tg mice. Here is the method:
Mice were assessed 70 days post-immunization with CII/CF or CFA only (or naïve). Some mice received honokiol (3 mg/day) from day 21-70 post-immunization.

A further data set deals with CH12.hCD40-LMP1 B cells. Description: CD40/LMP1 mediated cytokine and IgM production. Format: cell-based, mouse. Here is the method: IL-6 and TNF-a levels in culture supernatants were determined by ELISA. Subsequent IgM production by CH12.LX cells is also affected, as determined by assaying IgM secretion by CH12.hCD40-LMP1 cells. IgM secretion was measured by hemolytic plaque assay, as previously described (GA Bishop. 1991. J. Immunol. 147(4): 1107-1114).

Method for COX2 promoter: H1299 cells were transiently transfected with a COX-2 promoter plasmid linked to the luciferase gene and then treated with the indicated concentrations of honokiol. After 24 h in culture with 0.1 nM TNF, cell supernatants were collected and assayed for luciferase activity. Results are expressed as fold activity over the activity of the vector control. Values are means ±SD (indicated as error bars) of triplicate cultures for a representative experiment out of 3 independent ones showing similar results.
COX-2 promoter-dependent reporter luciferase gene expression. COX-2 promoter activity was examined as described elsewhere (Shishodia, S., et al. 2003 Cancer Res. 63:4375-4383). To further determine the effect of honokiol on COX-2 promoter, A293 cells were seeded at a concentration of 1.5×10^5 cells per well in six-well plates. […] The COX-2 promoter (−375 to +59), which was amplified from human genomic DNA by using the primers 5′-[sequence]-3′ (sense) and 5′-[sequence]-3′ (antisense). After a 6-h exposure to the transfection mixture, the cells were incubated in medium containing honokiol for 12 h. The cells were exposed to TNF (0.1 nM) for 24 h and then harvested. Luciferase activity was measured by using the Luclite luciferase assay system (Perkin-Elmer, Boston, Mass.) according to the manufacturer's protocol and detected by luminometer (Victor 3, Perkin-Elmer).

As for `C=CCc1ccc(O)c(-c2ccc(O)c(CC=C)c2)c1` [HNK, Honokiol], the “apoptosis in SU-DHL-4 cells” value in the data set on SU-DHL-4 cells is given as “induced apoptosis in SU-DHL-4 cells”. For the same molecule, the “inhibition of endothelial proliferation with or without TRAIL antibody” value in data set [1] is given as “TRAIL-dependent”. Besides, in the data set on SVR angiosarcoma, the “in vivo growth of SVR angiosarcoma” value is “effective against tumors in vivo” and the “toxicity to the host animal” value is given as “nontoxic to the host animal”. Also, the “direct activation of heart AMPKK” value in the data set on heart AMPKK is recorded as “does not directly activate heart AMPKK in vitro”. The “activity of phospholipase D” value in data set [2] is “inhibits the activity of phospholipase D in both 0.5% and 10% serum”. In addition, in the data set on COX2 promoter, the “TNF-induced COX2 promoter activity” value is on record as “inhibited the TNF-induced COX2 promoter activity in a dose-dependent manner”. Also, in data set [3], the “expression of G1 cell-cycle regulation proteins” value is “reduced the levels of cyclin D1, and upregulated expression of the cyclin-dependent kinase inhibitors, p27Kip1 and p21Cip1/WAF1”. In data set [4], the “collagen induced arthritis (CIA) pathology” value is “stablizes collagen induced arthritis (CIA) pathology”. In addition, the “proliferation and cytokine production of antigen recall lymph node cultures” value in the data set on lymph node cultures was “decreased proliferation and IFN-g production, with unaltered IL-10 production”. Further, in the data set with CH12.hCD40-LMP1 B cells (CH12.LX cells transfected with hCD40-LMP1, not IL-10 or IL-4), the “CD40/LMP1 mediated IL-6, TNF-a production” value is on record as “inhibits CD40/LMP1 mediated IL-6, TNF-a production in a dose-dependent manner”. Moreover, in the data set with CH12.hCD40-LMP1 B cells (CH12.hCD40-LMP1 cells), the “IgM secretion (hemolytic plaque assay)” value is “inhibited IgM production”.
